From patent US9796674B2, “Benzyl urea derivatives for activating TGF-beta signaling” (THE BOARD OF TRUSTEES OF THE LELAND STANFORD JUNIOR …, priority 2013, dated 2017)
“Also recorded” adds a separate entry of the source.

Legend:
B103 neuroblastoma cells = experiment: B103 live/dead cell assay with Aβ; assay type: cell-based, rat; conditions: for cell survival, protection relative to TGF-β1: percentage of live cells / percentage of rescue
Description: SRI-11381 is neuroprotective in vitro: To determine if the TGF-β-inducing capacity of SRI-011381 would translate into biologically beneficial effects, its neuroprotective potential was tested in B103 rat neuroblastoma cells and primary mouse neurons derived from E16 forebrains. B103 neuroblastoma cells were cultured in 24-well plates and exposed to an oligomeric preparation of Aβ together with compounds or recombinant TGF-β.
FIGS. 3A-3H illustrate that SRI-011381 protects cultured neurons from Aβ toxicity. B103 neuroblastoma cells were incubated with Aβ for 24 h. The compounds and TGF-β were added 2 h before Aβ. Following incubations live and dead cells were assessed with calcein-acetoxymethylester (CAM) and SYTOX Orange (Invitrogen), respectively.
B103 neuroblastoma cells: B103 neuroblastoma cells were cultured in Dulbecco's modified Eagle's medium containing 10% fetal calf serum and 1% v/v penicillin/streptomycin (Invitrogen) in a 5% CO2: 95% air atmosphere. 10^4 cells/well were seeded onto 24 well plates and cultured for 24 h before Aβ was added. The compounds and TGF-β were added 2 h before Aβ. Following a 24 h incubation with Aβ, live and dead cells were assessed using calcein-acetoxymethylester (CAM) and SYTOX Orange (Invitrogen), respectively. AM is a membrane-permeable, fluorogenic esterase substrate that is hydrolyzed intracellularly to a green fluorescent product (calcein) in live cells. SYTOX Orange is a high-affinity nucleic acid stain that easily penetrates cells with compromised plasma membranes and yet will not cross the membranes of live cells. After incubation with SYTOX Orange, the nucleic acids of dead cells fluoresce bright orange. […] Five fields were randomly selected from each well and the cell numbers were analyzed by ImageJ (NIH) in a blinded fashion.

hippocampal neurons = experiment: Aβ-induced neuritic dystrophy in primary hippocampal neurons; assay type: cell-based, mouse; conditions: for average numbers of dystrophic neurites per neuron: 21-22 DIV
Description: Primary hippocampal neurons isolated from E16 CF1 embryos were aged for 6-7 days or 21-22 days, then challenged with 5 μM oligomeric Aβ in the presence or absence of compounds, and assayed for neurotoxicity (cell survival as above) or neuritic dystrophy, respectively. For quantification of neuritic dystrophy, fixed cells were immune-stained with a MAP-2 monoclonal antibody to label dendrites.
Primary hippocampal neurons were isolated from E16 CF1 embryos. Twenty-four-well culture plates were coated with 10 μg/ml poly-L-lysine. Cells were seeded overnight at a density of 30,000 cells/well in DMEM/F-12 medium supplemented with 10% FBS and penicillin/streptomycin, and subsequently maintained in Neurobasal medium containing 2% B27 supplement. Cells were aged for 6-7 days or 21-22 days, then challenged with 5 μM Aβ in the presence or absence of compounds, and assayed for neurotoxicity or neuritic dystrophy, respectively. Cells were treated for 72 h for neurotoxicity assay and 48 h for neuritic dystrophy assay. At the end of treatment, an equal volume of 4% PFA was added, plates incubated at room temperature for 15 min and then washed three times with DPBS. Cells were kept in the last wash of DPBS at 4° C. until being counted or stained.
For quantification of neuritic dystrophy, fixed cells were immunostained with a MAP-2 monoclonal antibody (Sigma-Aldrich). […] MAP2 positive dendrites were observed under an inverted fluorescence microscope (Olympus). […] To quantify neurite curvature, an established method was modified for assessment of neurite curvature. Neurite tracks were digitized and approximated by a series of connected line segments using ImageJ (NIH). The angle of each segment was determined using a Sigmaplot macro, and the results were averaged to give the ‘mean differential curvature’. This parameter reflects the degree of neurite curvature with an increasing value indicating increased curvature. Neurite counting and quantification were performed in randomly selected fields (5 fields/well). All quantitative assessments were done by investigators blinded with respect to treatment conditions.

primary rat hepatocytes = experiment: Cytotoxicity in primary rat hepatocytes; assay type: cell-based; conditions: 20 h
Description: In Vitro Cytotoxicity: The cytotoxicity of SRI-011381 was determined in primary rat hepatocytes and in VERO cells.
Rat hepatocytes were isolated by collagenase perfusion and allowed to form a monolayer overnight. The test compounds were added to the cells in 5 concentrations up to 250 μM. Cells were incubated with the test article for 20 h and then toxicity determined by the MTT cytotoxicity screen. Toxicity was evaluated against the vehicle control (DMSO) and a positive control, amitriptylin, was included with each experiment.

female FVB mice = experiment: Dose escalation and 14-day MTD study in female FVB mice; assay type: in vivo; conditions: for hematology parameters / survival: repeat dose study; for clinical chemistry: all treatment groups; for single-dose level at which all animals survived to 48 h: female, FVB, mouse, in vivo; for survival: high dose 75 mg/kg
Description: In Vivo Range Finding Toxicity Studies in Mice and Rats: Dose escalation and 14-day MTD study of SRI-011381 and SRI-011382 in female FVB mice: The objectives of this study were to determine the maximum tolerated dose (MTD) and a no observable adverse effect level (NOAEL) in female FVB mice following a daily oral dose administration for 14 consecutive days. An initial dose escalation was performed with intraperitoneal (ip), oral (po), and intravenous (iv) dose routes for a single-dose MTD of SRI-011381 and SRI-011382.
Subsequently, three dose levels (10, 30, and 75 mg/kg) and a vehicle control group were used in the 14-day oral dose administration to determine the MTD and NOAEL based on changes in bodyweight, clinical observations, serum chemistry, hematology and gross organ physiology in 5 female mice per treatment group.
The objectives of this study were to determine maximum tolerated dose (MTD) and a no observable adverse effect level (NOAEL) in female FVB mice following a daily oral dose administration for 14 consecutive days. After a dose escalation single dose study with doses up to 400 mg/kg, three dose levels were selected for the repeat dose study, 10, 30 and 75 mg/kg, administered […]. The MTD is the maximum dose administered that results in less than 10% body weight loss compared to controls and no other dose limiting adverse effects (e.g. clinical pathology).

[1] = Metabolic stability in human liver microsomes; assay type: in vitro ADME
Description: Metabolic Stability: SRI-011381 (1 and 10 μM) was incubated with human liver microsomes (pooled from several donors) and cofactors.

With O=C(NC1CCCCC1)N(Cc1ccccc1)CC1CCNCC1 [SRI-011381, 1-Benzyl-3-cyclohexyl-1-(piperidin-4-ylmethyl)urea] the “cell survival, protection relative to TGF-β1” value (B103 neuroblastoma cells) was “better protection than TGF-β1”, the “average numbers of dystrophic neurites per neuron” value (hippocampal neurons; 5 μM Aβ, 48 h) was “markedly reduced” and the LD50 (primary rat hepatocytes; rat hepatocytes, MTT) was “greater than 250 μM”. For the same compound, the hematology parameters (female FVB mice; 10 mg/kg) was “no significant differences relative to controls”, the “absolute WBCs” value (female FVB mice; 30 mg/kg, 14 days) was “significantly decreased” and the hematology parameters (female FVB mice; 30 mg/kg) was “minor changes in WBCs only”. For the same compound, the “hematology parameters (RBCs, hematocrit, hemoglobin)” value (female FVB mice; 75 mg/kg (high dose), 14 days) was “reductions in red blood cells (RBCs), hematocrit and hemoglobin; also recorded: RBCs, hematocrit and hemoglobin were all significantly reduced; also recorded: significantly reduced hematocrit, hemoglobin, RBCs, and WBCs”, the clinical signs (female FVB mice; 75 mg/kg, 14 days) was “hunched posture, hypoactivity and ruffled fur” and the “neutrophils (% and absolute)” value (female FVB mice; 75 mg/kg, 14 days) was “increased”. For the same compound, the reticulocytes (female FVB mice; 75 mg/kg, 14 days) was “significantly elevated”, the “body weight or body weight change” value (female FVB mice; 10, 30, 75 mg/kg, 14 days, relative to controls) was “no significant differences in body weight or body weight change” and the “lymphocytes (% and absolute)” value (female FVB mice; 30 and 75 mg/kg, 14 days) was “decreased”. For the same compound, the clinical chemistry (female FVB mice; 14 days) was “no significant changes in clinical chemistry”, the “single-dose level at which all animals survived to 48 h” value (“single-dose level” for short) (female FVB mice; ip) was “up to 100 mg/kg” and the “single-dose level” value (female FVB mice; iv) was at most 15 mg/kg. For the same compound, the “single-dose level” value (female FVB mice; po) was at most 200 mg/kg, the survival (female FVB mice) was “survived to the scheduled sacrifice on Day 15” and the clinical observations (female FVB mice; two lower dose groups (10, 30 mg/kg), 14 days) was “appeared normal”. The compound unchanged ([1]; 1 and 10 μM, after 60 min) was “Approximately 80%”.

With O=C(NC1CCCCC1)N(C/C=C/c1ccc(F)cc1)CC1CCNCC1 [SRI-011382] the “cell survival, protection” value (B103 neuroblastoma cells; 1 μM, 5 μM Aβ) was “slightly lower protection”, the “cell survival, protection relative to TGF-β” value (B103 neuroblastoma cells; 3 μM, TGF-β 1 ng/ml) was “better protection than TGF-β” and the Aβ-induced cell death (B103 neuroblastoma cells; Aβ 24 h, added 2 h before Aβ) was “inhibit Aβ-induced cell death”. The “cell survival, protection relative to TGF-β1” value (B103 neuroblastoma cells) was “better protection than TGF-β1”, the “Aβ-induced increase in neurite curvature (mean differential curvature)” value (hippocampal neurons) was “prevented” and the Aβ-induced tortuosity (hippocampal neurons; 3 μM compound, 5 μM Aβ, 48 h) was “markedly reduced”. The “average numbers of dystrophic neurites per neuron” value (hippocampal neurons; 5 μM Aβ, 48 h) was “markedly reduced”, the “cytotoxicity in rat hepatocytes” value (primary rat hepatocytes; rat, 50 μM) was “cytotoxic at 50 μM” and the hematology parameters (female FVB mice; 30 mg/kg) was “reduced hematocrit, hemoglobin, RBCs, and WBCs”. For the same compound, the clinical signs (female FVB mice; 75 mg/kg, 14 days) was “hunched posture, hypoactivity and ruffled fur”, the clinical chemistry (female FVB mice; 14 days) was “no significant changes” and the survival (female FVB mice) was “lethality to the entire treatment group”. The metabolic stability [1] was “desirable level of metabolic stability”.
